# Source: patent US11034648B2, “Cystobactamide derivatives” (priority 2017, dated 2021)
# Read-outs that look alike come from different tables or passages of the source.
# Tests used:
# Type in all cases: cell-based
# P. aeruginosa ΔmexAB = assay: microbe, parasite or virus in culture; conditions: Pseudomonas aeruginosa, 16 h
# Method: (§1) Cystobactamid derivatives synthesized were tested against relevant Gram negative and positive bacteria of clinical interest. Experimental procedures used for the biological characterization of the compounds are the same as previously described in WO 2016/082934.
# (§2) Bacterial strains used in susceptibility assays (minimum inhibitory concentration, MIC) were either part of our internal strain collection or purchased from the German Collection of Microorganisms and Cell Cultures (Deutsche Sammlung von Mikroorganismen und Zellkulturen, DSMZ) and the American Type Culture Collection (ATCC). The susceptible E. coli strain (WT) and fluoroquinolone-resistant mutants E. coli WT-3 and WT-III were kindly provided by Prof Dr. P. Heisig, Pharmaceutical Biology and Microbiology, University of Hamburg, Germany. The efflux-deficient strain P. aeruginosa ΔmexAB was kindly provided by Prof Dr. S. Häußler, Institute for Molecular Bacteriology, TWINCORE, Hannover, Germany. All compounds were prepared as DMSO stocks and MIC values were determined in standard microbroth dilution assays in 96-well MTPs as described in Baumann et al., Angew Chem Int Ed Engl. 2014; 53(52):14605-9. In brief, overnight cultures of bacteria were diluted in either tryptic soy broth (TSB: 1.7% peptone casein, 0.3% peptone soymeal, 0.25% glucose, 0.5% NaCl, 0.25% K2HPO4; pH 7.3; S. pneumoniae and E. faecalis) or cation-adjusted Müller-Hinton Broth (BBL™, BD; all other bacteria) and adjusted to 10^4-10^6 cfu/mL. Bacteria were grown in the presence of the derivatives in serial dilution for approx. 16 h at 30-37° C. MIC values were determined and were defined as the antibiotic concentration at which no visual growth of bacteria was observed.
# E. coli ΔtolC = assay: microbe, parasite or virus in culture; conditions: Escherichia coli, 16 h
# Method: as §1, §2
# P. aeruginosa WT PA14 = assay: MIC, microbroth dilution susceptibility assay; conditions: Pseudomonas aeruginosa
# Method: as §1, §2
# S. aureus Newman = assay: MIC, microbroth dilution susceptibility assay; conditions: Staphylococcus aureus, NEWMAN, read-out: MIC S. aureus Newman
# Method: as §1, §2
# E. coli WT DSM-1116 = assay: MIC, microbroth dilution susceptibility assay; conditions: Escherichia coli, read-out: MIC E. coli WT DSM-1116
# Method: as §1, §2
# [1] = read-out: MIC P. aeruginosa ΔmexAB, efflux-deficient strain, small panel, Tables 1a/1b
# [2] = read-out: MIC E. coli ΔtolC, small panel, Tables 1a/1b, no visual growth after approx. 16 h
# [3] = PA14, small panel, Tables 1a/1b, read-out: MIC P. aeruginosa WT PA14
# [4] = DSM1116, small panel, Tables 1a/1b, no visual growth after approx. 16 h
SMILES,MIC (P. aeruginosa ΔmexAB; [1]) [µg/mL],MIC (E. coli ΔtolC; [2]) [µg/mL],MIC (P. aeruginosa WT PA14; [3]) [µg/mL],"MIC (S. aureus Newman; small panel, Tables 1a/1b) [µg/mL]",MIC (E. coli WT DSM-1116; [4]) [µg/mL],MIC (P. aeruginosa ΔmexAB; read-out: MIC P. aeruginosa ΔmexAB) [µg/mL],MIC (E. coli ΔtolC; read-out: MIC E. coli ΔtolC) [µg/mL],"MIC (P. aeruginosa WT PA14; PA14, read-out: MIC P. aeruginosa WT PA14) [µg/mL]",MIC (S. aureus Newman) [µg/mL],"MIC (E. coli WT DSM-1116; DSM1116, 16 h) [µg/mL]"
"CO[C@@H](C(N)=O)[C@H](NC(=O)c1ccc(NC(=O)/C(C)=C/c2ccc(C#N)cc2)cc1)C(=O)Nc1ccc(C(=O)Nc2ccc(C(=O)Nc3ccc(C(=O)O)cc3)c(O)c2OC(C)C)cc1 [Compound 123, 4-(4-(4-((2S,3R)-4-amino-2-(4-((E)-3-(4-cyanophenyl)-2-methylacrylamido)benzamido)-3-methoxy-4-oxobutanamido)benzamido)-2-hydroxy-3-isopropoxybenzamido)benzoic acid]",2,0.5,8,4,1,–,–,–,–,–
"C/C(=C\c1ccc(C#N)cc1)C(=O)Nc1ccc(C(=O)N[C@@H](CC(N)=O)C(=O)Nc2ccc(C(=O)Nc3ccc(C(=O)Nc4ccc(C(=O)O)cc4)c(O)c3OCC(C)C)cc2)cc1 [Compound 125, (S,E)-4-(4-(4-(4-amino-2-(4-(3-(4-cyanophenyl)-2-methylacrylamido)benzamido)-4-oxobutanamido)benzamido)-2-hydroxy-3-isobutoxybenzamido)benzoic acid]",> 64,0.06,> 64,0.06,0.5,–,–,–,–,–
"CC(C)Oc1c(NC(=O)c2ccc(NC(=O)[C@H](CC(N)=O)NC(=O)c3ccc(NC(=O)c4ccc(NC(N)=O)cc4)cc3)cc2)ccc(C(=O)Nc2ccc(C(=O)O)cc2)c1O [Compound 46, (S)-4-(4-(4-(4-amino-4-oxo-2-(4-(4-ureidobenzamido)benzamido)butanamido)benzamido)-2-hydroxy-3-isopropoxybenzamido)benzoic acid]",4,0.03,> 64,64,0.5,–,–,–,–,–
"CC(C)Oc1c(NC(=O)c2ccc(NC(=O)[C@H](CC(N)=O)NC(=O)c3ccc(NC(=O)c4ccc(C#N)c(F)c4)cc3)cc2)ccc(C(=O)Nc2ccc(C(=O)O)cc2)c1O [Compound 51, (S)-4-(4-(4-(4-amino-2-(4-(4-cyano-3-fluorobenzamido)benzamido)-4-oxobutanamido)benzamido)-2-hydroxy-3-isopropoxybenzamido)benzoic acid]",0.5,≤ 0.03,8,2,0.25,–,–,–,–,–
"CC(C)Oc1c(NC(=O)c2ccc(NC(=O)[C@H](CC(N)=O)NC(=O)c3ccc(NC(=O)C(C)Oc4ccccc4)cc3)cc2)ccc(C(=O)Nc2ccc(C(=O)O)cc2)c1O (stereo partly drawn) [Compound 54, 4-(4-(4-((2S)-4-amino-4-oxo-2-(4-(2-phenoxypropanamido)benzamido)butanamido)benzamido)-2-hydroxy-3-isopropoxybenzamido)benzoic acid]",> 64,4,> 64,> 64,> 64,–,–,–,–,–
"CC(C)Oc1c(NC(=O)c2ccc(NC(=O)[C@H](CC(N)=O)NC(=O)c3ccc(NC(=O)c4ccc([N+](=O)[O-])cc4)cc3)cc2)ccc(C(=O)Nc2ccc(C(N)=O)cc2)c1O [Compound 78, (S)—N1-(4-((4-((4-carbamoylphenyl)carbamoyl)-3-hydroxy-2-isopropoxyphenyl)carbamoyl)phenyl)-2-(4-(4-nitrobenzamido)benzamido)succinamide]",> 64,≤ 0.03,> 64,64,32,–,–,–,–,–
"CC(C)Oc1c(NC(=O)c2ccc(NC(=O)[C@H](CC(N)=O)NC(=O)c3ccc(NC(=O)c4ccc(C#N)cc4)cc3)cc2)ccc(C(=O)Nc2ccc(S(=O)(=O)O)cc2)c1O [Compound 92, (S)-4-(4-(4-(4-amino-2-(4-(4-cyanobenzamido)benzamido)-4-oxobutanamido)benzamido)-2-hydroxy-3-isopropoxybenzamido)benzenesulfonic acid]",> 64,0.25,> 64,> 64,> 64,–,–,–,–,–
"Cc1cc(C#N)ccc1C(=O)Nc1ccc(C(=O)N[C@@H](CC(N)=O)C(=O)Nc2ccc(C(=O)Nc3ccc(C(=O)Nc4ccc(C(=O)O)cc4)c(O)c3OC(C)C)cc2)cc1 [Compound 50, (S)-4-(4-(4-(4-amino-2-(4-(4-cyano-2-methylbenzamido)benzamido)-4-oxobutanamido)benzamido)-2-hydroxy-3-isopropoxybenzamido)benzoic acid]",2,0.03,> 64,64,0.5,–,–,–,–,–
"CC(C)Oc1c(NC(=O)c2ccc(NC(=O)[C@H](CC(N)=O)NC(=O)c3ccc(NC(=O)c4cccc(N)c4)cc3)cc2)ccc(C(=O)Nc2ccc(C(=O)O)cc2)c1O [Compound 42, (S)-4-(4-(4-(4-amino-2-(4-(3-aminobenzamido)benzamido)-4-oxobutanamido)benzamido)-2-hydroxy-3-isopropoxybenzamido)benzoic acid]",4,2,> 64,> 64,32,–,–,–,–,–
"C/C(=C\c1ccc(C#N)cc1)C(=O)Nc1ccc(C(=O)N[C@@H](CC(N)=O)C(=O)Nc2ccc(C(=O)Nc3ccc(C(=O)Nc4ccc(C(=O)O)cc4)c(O)c3OC(C)C)cc2)cc1 [Compound 58, (S,E)-4-(4-(4-(4-amino-2-(4-(3-(4-cyanophenyl)-2-methylacrylamido)benzamido)-4-oxobutanamido)benzamido)-2-hydroxy-3-isopropoxybenzamido)benzoic acid]",0.25,< 0.03,1,0.06,0.125,–,–,–,–,–
"CC(C)Oc1c(NC(=O)c2ccc(NC(=O)[C@H](CC(N)=O)NC(=O)c3ccc(NC(=O)c4ccc5c(c4)COC5=O)cc3)cc2)ccc(C(=O)Nc2ccc(C(=O)O)cc2)c1O [Compound 57, (S)-4-(4-(4-(4-amino-4-oxo-2-(4-(1-oxo-1,3-dihydroisobenzofuran-5-carboxamido)benzamido)butanamido)benzamido)-2-hydroxy-3-isopropoxybenzamido)benzoic acid]",1,< 0.03,> 64,1,< 0.03,–,–,–,–,–
"CC(C)Oc1c(NC(=O)c2ccc(NC(=O)[C@H](CC(N)=O)NC(=O)c3ccc(NC(=O)c4ccccc4)cc3)cc2)ccc(C(=O)Nc2ccc(C(=O)O)cc2)c1O [Compound 38, (S)-4-(4-(4-(4-amino-2-(4-benzamidobenzamido)-4-oxobutanamido)benzamido)-2-hydroxy-3-isopropoxybenzamido)benzoic acid]",–,–,–,–,–,2,0.5,> 64,> 64,> 64
"CC(C)Oc1c(NC(=O)c2ccc(NC(=O)[C@H](CC(N)=O)NC(=O)c3ccc(NC(=O)c4ccc(NC(=O)c5ccc([N+](=O)[O-])cc5)cc4)cc3)cc2)ccc(C(=O)Nc2ccc(C(=O)O)cc2)c1O [Compound 47, (S)-4-(4-(4-(4-amino-2-(4-(4-(4-nitrobenzamido)benzamido)benzamido)-4-oxobutanamido)benzamido)-2-hydroxy-3-isopropoxybenzamido)benzoic acid]",> 64,> 64,> 64,> 64,2,–,–,–,–,–
"CC(C)Oc1c(NC(=O)c2ccc(NC(=O)[C@H](CC(N)=O)NC(=O)c3ccc(NC(=O)c4ccc(C#N)cc4)cc3)cc2)ccc(C(=O)N[C@@H]2CONC2=O)c1O [Compound 93, (S)-2-(4-(4-cyanobenzamido)benzamido)-N1-(4-((3-hydroxy-2-isopropoxy-4-(((R)-3-oxoisoxazolidin-4-yl)carbamoyl)phenyl)carbamoyl)phenyl)succinamide]",> 64,0.5,> 64,> 64,> 64,–,–,–,–,–
"CC(C)Oc1c(NC(=O)c2ccc(NC(=O)[C@H](CC(N)=O)NC(=O)c3ccc(NC(=O)c4ccc(N)cc4)cc3)cc2)ccc(C(=O)Nc2ccc(C(=O)O)cc2)c1O [Compound 40, (S)-4-(4-(4-(4-amino-2-(4-(4-aminobenzamido)benzamido)-4-oxobutanamido)benzamido)-2-hydroxy-3-isopropoxybenzamido)benzoic acid]",4,32,> 64,> 64,2,–,–,–,–,–
